We go through 1 molecule from paper PMC3415323 (International Journal of Nanomedicine, 2012).

For this data set, the target named is p-gp (Homo sapiens, UniProt P08183). Briefly: Effect of p-gp inhibitors on cellular transport of HSYA solution. The class given is in vitro ADME. The note with it: Figure 5A.
Sequence of p-gp (P08183 whole entry): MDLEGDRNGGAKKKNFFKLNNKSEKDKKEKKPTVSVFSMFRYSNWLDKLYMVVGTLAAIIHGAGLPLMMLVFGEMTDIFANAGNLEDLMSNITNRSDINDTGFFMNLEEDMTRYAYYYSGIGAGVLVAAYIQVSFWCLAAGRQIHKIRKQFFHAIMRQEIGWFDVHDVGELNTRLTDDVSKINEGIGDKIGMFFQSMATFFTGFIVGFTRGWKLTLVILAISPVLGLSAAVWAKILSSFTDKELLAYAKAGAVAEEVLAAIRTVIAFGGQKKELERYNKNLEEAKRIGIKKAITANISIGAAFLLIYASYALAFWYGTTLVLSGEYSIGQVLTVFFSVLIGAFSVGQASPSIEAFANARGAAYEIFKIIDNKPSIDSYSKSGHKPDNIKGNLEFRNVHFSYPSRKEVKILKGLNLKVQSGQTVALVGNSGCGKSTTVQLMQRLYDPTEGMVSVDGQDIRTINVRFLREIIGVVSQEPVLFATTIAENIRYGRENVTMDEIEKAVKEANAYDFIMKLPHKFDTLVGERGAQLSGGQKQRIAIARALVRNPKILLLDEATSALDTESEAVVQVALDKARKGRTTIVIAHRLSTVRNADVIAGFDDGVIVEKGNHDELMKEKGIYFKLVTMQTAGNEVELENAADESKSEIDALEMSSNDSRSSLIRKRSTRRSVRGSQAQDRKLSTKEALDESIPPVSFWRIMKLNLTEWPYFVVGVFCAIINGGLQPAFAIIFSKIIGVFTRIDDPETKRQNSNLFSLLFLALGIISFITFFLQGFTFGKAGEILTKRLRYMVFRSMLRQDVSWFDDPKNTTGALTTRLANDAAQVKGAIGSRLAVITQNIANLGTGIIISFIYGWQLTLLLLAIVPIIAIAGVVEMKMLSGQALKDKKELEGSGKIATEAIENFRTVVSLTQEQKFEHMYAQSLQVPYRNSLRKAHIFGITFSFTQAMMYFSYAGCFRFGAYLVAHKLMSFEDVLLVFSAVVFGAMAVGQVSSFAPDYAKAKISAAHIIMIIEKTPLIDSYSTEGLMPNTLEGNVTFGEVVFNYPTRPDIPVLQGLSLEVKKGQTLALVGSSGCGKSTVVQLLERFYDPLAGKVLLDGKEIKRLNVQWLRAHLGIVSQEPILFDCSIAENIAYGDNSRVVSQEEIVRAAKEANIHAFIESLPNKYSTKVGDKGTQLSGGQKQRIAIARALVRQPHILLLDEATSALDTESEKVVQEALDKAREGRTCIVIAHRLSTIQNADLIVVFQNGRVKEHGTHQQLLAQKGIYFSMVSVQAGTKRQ

As for `Cc1nc(C)c(C)nc1C` [TMP, tetramethylpyrazine], the “effect on the absorption of HSYA on Caco-2 cells” value is given as “significantly increased”.
